The text below walks through data of patent US9394298B2, “Pyrroloquinoline quinone tetraalkali salt and crystal thereof, methods for producing these, and composition” (Mitsubishi Gas Chemical Company, Inc., priority 2012, dated 2016).

Structures can show the parent of a compound that is named as a salt. Where two headings read alike, the source gives them in different places.

Common to all, as to type: physicochemical
The nature of one series: Test of the solubility. Particulars: for Solubility Ratio: ratio to Comp. Ex. 1 (Na2PQQ = 1); for Solubility: room temperature of 23° C., calculated from absorbance at 260 nm. The procedure: 50 mg of each PQQ salt shown in Table 6 was added to 0.5 mL of water so as to become supersaturated. Here, in the case where a PQQ salt was completely dissolved in this concentration, the amount of water was reduced. Thereafter, an ultrasonic wave was applied on the solution at room temperature of 23° C. The solution was subjected to a centrifugal separator; and the supernatant was subjected to a UV measurement by diluting it using a phosphoric acid buffer (pH: 7.4, manufactured by Gibco Corp.) so that the absorbance at 260 nm became in the range of 0 to 1. The solubility was calculated from the absorption.

The nature of series [1]: Test of the dissolution speed. The settings on record: 1 mg salt in 2 mL water; for Absorbance After 1 min / Absorbance After 30 min: absorbance at 450 nm, fully dissolved = 100. The procedure: 1 mg of each PQQ salt shown in Table 7 was added to an acryl-made absorbance measurement cell, and 2 mL of water was added thereto and the absorbance at 450 nm was measured.
Series [2] in a line: Test of the reactivity with ascorbic acid. The settings on record: for State of the solution after adding ascorbic acid, after 2 hours / State of the solution after adding ascorbic acid, after 1 day: 1 g/L PQQ salt in water, 1 mL + 0.5 mL of 100 g/L ascorbic acid aqueous solution. The procedure:
Each PQQ salt shown in Table 5 was dissolved in water so as to become 1 g/L. 0.5 mL of a 100 g/L ascorbic acid aqueous solution was added to 1 mL of the solution, and its states after 2 hours, after 1 day and after 2 days were observed.

Series [3] is described as follows: Stability in alkalinity, from the liquid chromatography chart. Particulars: solid obtained from alkaline solution. The procedure: PQQ was identified using the following apparatus.
Apparatus: a high performance liquid chromatography system, Lc-20A, manufactured by Shimadzu Corp.
Column: YMC-Pack ODS-Tms (5 μm), 150×4.6 mm I.D.
Measurement temperature: 40° C.
Detection: absorbance at 260 nm

On to `O=C([O-])c1cc(C(=O)[O-])c2c(n1)C(=O)C(=O)c1cc(C(=O)O)[nH]c1-2.[Na+].[Na+]` [Comp. Ex. 1, PQQ Disodium Salt, reference compound], for which the “Solubility Ratio” value in the series “Test of the solubility” worked out at 1. Moreover, the Solubility (commonly how much of the substance goes into solution per volume) in “Test of the solubility” (water) is 7.99 mM. In series [1], the “Absorbance After 1 min” value came to 41 and the “Absorbance After 30 min” value was 48. For the same molecule, in series [2], the “State of the solution after adding ascorbic acid, after 2 hours” value (“State of the solution … after 2 hours” for short) was “brown deposit” and the “State of the solution after adding ascorbic acid, after 1 day” value (“State of the solution … after 1 day” for short) was “brown deposit”.
As for `O=C(O)c1cc(C(=O)O)c2c(n1)C(=O)C(=O)c1cc(C(=O)O)[nH]c1-2` [Comp. Ex. 2, PQQ Trisodium Salt, reference compound], the “Solubility Ratio” value in “Test of the solubility” stood at 3.8. Besides, the Solubility in the series “Test of the solubility” (water) was 30.4 mM. Further, in series [2] (Trisodium Salt), the “State of the solution … after 2 hours” value is “brown deposit” and the “State of the solution … after 1 day” value is reported as “brown deposit”.
For the molecule `O=C(O)c1cc(C(=O)O)c2c(n1)C(=O)C(=O)c1cc(C(=O)O)[nH]c1-2` [Example 1, PQQ Tetrasodium Salt], in “Test of the solubility”, the “Solubility Ratio” value came out at 58. Also, the Solubility in the series “Test of the solubility” (thermodynamic from solid, water, read-out: Solubility) is 463 mM. For the same molecule, in series [1], the “Dissolution speed, in words” value is reported as “higher dissolution speed than the PQQ disodium salt”; the “Absorbance After 1 min” value came to 88; the “Absorbance After 30 min” value came to 92. In addition, in series [2], the “State of the solution … after 2 hours” value was “red solution”; the “State of the solution … after 1 day” value is reported as “red solution”; the “Color change with ascorbic acid in a long-term observation” value is reported as “hardly generated color change”.
As for `O=C(O)c1cc(C(=O)O)c2c(n1)C(=O)C(=O)c1cc(C(=O)O)[nH]c1-2.[Li].[Li].[Li].[Li]` [Example 5, PQQ Tetralithium Salt], the “Solubility Ratio” value in the series “Test of the solubility” is 82. The “Solubility, in words” value in “Test of the solubility” (water, 23° C.) is “more easily dissolved than the PQQ tetrasodium salt”. In addition, the Solubility in the series “Test of the solubility” (water) was 655 mM. Further, in series [2], the “State of the solution … after 2 hours” value is given as “red solution” and the “State of the solution … after 1 day” value is on record as “red solution”. The “Decomposed substances / stability in the alkalinity” value (shortened to “Decomposed substances / stability”) in series [3] was “no decomposed substances and was stable even in the alkalinity”.
With `O=C(O)c1cc(C(=O)O)c2c(n1)C(=O)C(=O)c1cc(C(=O)O)[nH]c1-2.[Li].[Li].[Na].[Na]` [Example 6, PQQ Disodium Dilithium Salt], the “Solubility Ratio” value in “Test of the solubility” was 11. In addition, the Solubility in “Test of the solubility” (water) is 89 mM. In addition, in series [2], the “State of the solution … after 2 hours” value was “red solution” and the “State of the solution … after 1 day” value is “red solution”. Moreover, the “Decomposed substances / stability” value in series [3] is “no decomposed substances and was stable even in the alkalinity”.
Take `O=C(O)c1cc(C(=O)O)c2c(n1)C(=O)C(=O)c1cc(C(=O)O)[nH]c1-2.[K].[K].[K].[K]` [Example 7, PQQ tetrapotassium salt]: the “Solubility Ratio” value in the series “Test of the solubility” amounted to 10.5. In addition, in the series “Test of the solubility” (water), the Solubility was 84 mM. Moreover, in series [1], the “Absorbance After 1 min” value worked out at 71 and the “Absorbance After 30 min” value stood at 85. Besides, in series [2], the “State of the solution … after 2 hours” value is “red solution”; the “State of the solution … after 1 day” value was “red solution”; the “Color change with ascorbic acid in a long-term observation” value is “hardly generated color change”. Besides, the “Decomposed substances / stability” value in series [3] was “no decomposed substances and was stable even in the alkalinity”.
